# Measurements taken from patent US10689346B2, “Human plasma kallikrein inhibitors” (BioCryst Pharmaceuticals, Inc., priority 2014, dated 2020).
# Key:
# human plasma kallikrein = human plasma kallikrein (Homo sapiens (Human), UniProt P03952); assay: Plasma Kallikrein Activity Assay; type: biochemical
# Description: Plasma Kallikrein Activity Assay.
# The effect of compounds of the invention on human plasma kallikrein activity was determined using the chromogenic substrates (DiaPharma Group, Inc., West Chester, Ohio, USA). In these experiments, 2 nM kallikrein (Enzyme Research Laboratories, South Bend, Ind., USA) was incubated with 80 μM S2302 (H-D-Pro-Phe-Arg-p-nitroaniline) in the absence or presence of increasing concentrations of compounds of the invention in a final volume of 200 μL Tris-HCl buffer (200 mM NaCl; 2.5 mM CaCl2; 50 mM Tris-HCl, pH 7.8).
# Data were analyzed using SigmaPlot software (Systat Software, Inc., San Jose, Calif., USA) (Four Parameter Logistic Curve).
# [1] = test system: hereditary angioedema (HAE); conditions: cited from earlier work
# sepsis = sepsis patients; cited from earlier work
# [2] = test system: middle cerebral artery occlusion (MCAO); conditions: mouse model of MCAO; cited from earlier work
# [3] = test system: LPS- or bacterial-induced sepsis; conditions: LPS- or bacterial-induced sepsis in animals; cited from earlier work
# ischemic stroke = conditions: animal model of ischemic stroke; cited from earlier work
# Chain of human plasma kallikrein (P03952 whole entry, looked up): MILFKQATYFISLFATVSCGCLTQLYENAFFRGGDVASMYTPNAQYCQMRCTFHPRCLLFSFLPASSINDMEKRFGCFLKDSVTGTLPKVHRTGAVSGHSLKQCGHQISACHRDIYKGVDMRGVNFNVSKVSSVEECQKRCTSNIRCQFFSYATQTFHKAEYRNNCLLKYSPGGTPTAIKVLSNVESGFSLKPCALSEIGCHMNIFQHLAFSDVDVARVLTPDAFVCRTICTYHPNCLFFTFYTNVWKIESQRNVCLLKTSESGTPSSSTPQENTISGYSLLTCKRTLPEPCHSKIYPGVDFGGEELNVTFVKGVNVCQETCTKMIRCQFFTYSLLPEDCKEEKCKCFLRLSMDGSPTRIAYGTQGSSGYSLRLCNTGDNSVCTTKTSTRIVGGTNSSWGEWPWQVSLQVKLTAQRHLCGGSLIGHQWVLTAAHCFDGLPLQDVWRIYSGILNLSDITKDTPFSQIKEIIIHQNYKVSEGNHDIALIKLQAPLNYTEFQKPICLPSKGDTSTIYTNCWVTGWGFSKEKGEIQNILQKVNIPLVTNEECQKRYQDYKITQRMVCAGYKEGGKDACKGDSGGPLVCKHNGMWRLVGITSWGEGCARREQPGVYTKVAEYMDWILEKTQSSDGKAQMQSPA
# Chain of human plasma kallikrein (P03952 whole entry partner, looked up): as the sequence (P03952 whole entry, looked up) above
molecule,measurement,setting,value
"CN(C1CC1)C(c1cccc(N)c1)c1cccc(NC(=O)c2cc(C(F)(F)F)nn2-c2cccc(CN)c2)c1 (centres unmarked) [Compound 102b, 1-(3-(aminomethyl)phenyl)-N-(3-((3-aminophenyl)(cyclopropyl-methylamino)methyl)phenyl)-3-(trifluoromethyl)-1H-pyrazole-5-carboxamide]",Ki,human plasma kallikrein,0.1 to 50 nM
NC(N)=NCCC[C@@H](N)C(=O)N[C@@H](CCCN=C(N)N)C(=O)N1CCC[C@H]1C(=O)N1C[C@H](O)C[C@H]1C(=O)NCC(=O)N[C@@H](Cc1cccs1)C(=O)N[C@@H](CO)C(=O)N1Cc2ccccc2C[C@@H]1C(=O)N1[C@H](C(=O)N[C@@H](CCCN=C(N)N)C(=O)O)C[C@@H]2CCCC[C@@H]21 [Icatibant],efficacy in treating HAE,[1]; HAE,effective in treating HAE
"C1-inhibitor: ""a physiological inhibitor (C1-inhibitor)""; ""reduced infarct size in a mouse model of middle cerebral artery occlusion"" [Compound C1-inhibitor]",clinical improvement,sepsis,Clinical improvement was observed
same,infarct size,[2],reduced infarct size
same,lesions,[3],reduce lesions
same,vascular permeability in multiple organs,[3],reduce vascular permeability
H-D-Pro-Phe-Arg-chloromethylketone [H-D-Pro-Phe-Arg-chloromethylketone (CMK)],lesions,[3],reduce lesions
ecallantide [DX-88],brain edema,ischemic stroke,reduced
same,infarct volume,ischemic stroke,reduced
same,neurological deficits,ischemic stroke,reduced
same,edema,[1]; patients with hereditary angioedema (HAE),alleviates edema
